ChEMBL document CHEMBL1151546, “A new structural analogue antagonist of peptido-leukotrienes. The discovery of bay x7195” (Bioorg Med Chem Lett, 1993)

Tests used:
[1] = target: T1, Cysteinyl leukotriene receptor 1 (Cavia porcellus, UniProt Q2NNR5); assay: Inhibition of [3H]LTD4 binding to guinea-pig lung membranes; type: tissue-based, Membrane
T1 sequence (Q2NNR5 whole entry): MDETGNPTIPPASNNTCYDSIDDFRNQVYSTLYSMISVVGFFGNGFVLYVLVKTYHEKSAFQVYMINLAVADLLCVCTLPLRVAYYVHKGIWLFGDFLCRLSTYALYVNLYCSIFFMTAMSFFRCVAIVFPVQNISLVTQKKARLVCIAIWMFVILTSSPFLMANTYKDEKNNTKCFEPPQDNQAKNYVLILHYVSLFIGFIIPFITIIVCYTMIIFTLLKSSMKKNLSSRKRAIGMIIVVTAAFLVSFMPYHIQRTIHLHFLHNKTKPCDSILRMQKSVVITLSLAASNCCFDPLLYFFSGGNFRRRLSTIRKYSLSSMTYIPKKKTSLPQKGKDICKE

[2] = target: T1, Cysteinyl leukotriene receptor 1; assay: Compound was evaluated for its binding affinity on guinea-pig ileum; type: tissue-based
Cavia porcellus [3] = organism: Cavia porcellus; assay: Compound was evaluated for its agonist activity on guinea-pig ileum, value expressed as the negative logarithm of the ED50 value; type: functional
[4] = target: T2, Cysteinyl leukotriene receptor 1 (Cavia porcellus) (UniProt Q2NNR5); assay: Compound was evaluated for its antagonist affinity at 1 uM on guinea-pig trachea rings against LTD4 receptor; type: functional, tissue-based
T2 sequence (whole entry): T1 sequence (Q2NNR5 whole entry)

[5] = target: T2, Cysteinyl leukotriene receptor 1 (Cavia porcellus); assay: Compound was evaluated for its antagonist affinity at 10 (uM) on guinea-pig trachea rings against LTD4 receptor; type: functional, tissue-based
Cavia porcellus [6] = assay: Compound was tested in vivo for antagonistic potency of LTD4 induced contractions of guinea-pig trachea after oral administration; type: functional; settings: read-out: ID50 (the source's name)
[7] = target: T1, Cysteinyl leukotriene receptor 1; assay: (§1) Compound was evaluated for its antagonist affinity at 0.1 uM on guinea-pig trachea rings against LTD4 receptor; type: functional, tissue-based; settings: read-out: pA2 (converted)
[8] = target: T3, Cysteinyl leukotriene receptor 1 (Homo sapiens) (UniProt Q9Y271); assay: Compound was evaluated for its antagonist affinity against LTD4 on human bronchial muscle; type: functional, tissue-based; settings: Muscle tissue
T3 sequence (whole entry): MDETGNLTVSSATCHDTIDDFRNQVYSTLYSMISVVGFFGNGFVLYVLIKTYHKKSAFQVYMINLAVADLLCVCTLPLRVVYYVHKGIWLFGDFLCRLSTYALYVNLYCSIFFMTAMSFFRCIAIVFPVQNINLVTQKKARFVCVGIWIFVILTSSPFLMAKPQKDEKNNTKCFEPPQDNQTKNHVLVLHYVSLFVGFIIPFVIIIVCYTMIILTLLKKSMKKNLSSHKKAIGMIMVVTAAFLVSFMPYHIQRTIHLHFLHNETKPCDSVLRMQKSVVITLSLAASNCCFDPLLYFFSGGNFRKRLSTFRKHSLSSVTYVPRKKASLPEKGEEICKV

[9] = target: T2, Cysteinyl leukotriene receptor 1 (Cavia porcellus); assay: as §1; type: functional, tissue-based
Cavia porcellus [10] = organism: Cavia porcellus; assay: spontaneously compound was tested for oral activity against LTD4 in spontaneously-breathing guinea pigs; type: functional; settings: read-out: ID50 (the source's name)

With `O=C(O)CCC[C@H](O)[C@@H](/C=C\CCCCCCCCc1ccccc1)Sc1ccc(C(=O)O)cc1` the Ki [1] was 316 nM.
With `CCCCC/C=C\C\C=C/C=C/C=C/[C@@H](SCC(=O)O)[C@@H](O)CCCC(=O)O` the Ki [2] was 2 nM and the pD2 (Cavia porcellus [3]) was 8.5.
Compound `O=C(O)c1ccc(SC(/C=C\Cc2ccc(OCCCCOc3ccccc3)cc2)C(=O)O)cc1` (stereo unspecified) has a pKB [4] of 6.4.
Compound `CCCCC/C=C\C\C=C/C=C/C=C/[C@@H](Sc1cccc(C(=O)O)c1)[C@@H](O)CCCC(=O)O` has a Ki [2] of 2 nM and a pD2 (Cavia porcellus [3]) of 8.2.
With `O=C(O)CCC[C@H](O)[C@@H](/C=C\c1ccccc1OCCCCOc1ccccc1)Sc1ccc(C(=O)O)cc1` the pKB [5] was under 5.
With `O=C(O)CC(/C=C\Cc1ccc(OCCCCOc2ccccc2)cc1)Sc1ccc(C(=O)O)cc1` (stereo unspecified) the pKB [4] was 6.9.
Compound `O=C(O)CCCC(/C=C\Cc1ccc(OCCCCOc2ccccc2)cc1)Sc1ccc(C(=O)O)cc1` (stereo unspecified) has a pKB [4] of 7.
`CCCCC/C=C\C\C=C/C=C/C=C/[C@@H](Sc1ccccc1C(=O)O)[C@@H](O)CCCC(=O)O` was tested, and the Ki [2] was 25.1 nM and the pD2 (Cavia porcellus [3]) was 6.9.
`O=C(O)CCC[C@H](O)[C@@H](/C=C\CCCCCCCCCCCc1ccccc1)Sc1ccc(C(=O)O)cc1` was tested, and the Ki [1] was 1260 nM.
Compound `O=C(O)CCC[C@H](O)[C@@H](/C=C/c1cccc(OCCCCOc2ccccc2)c1)Sc1ccc(C(=O)O)cc1` has a pKB [5] of 6.8.
Work on `O=C(O)CCC[C@H](O)[C@@H](/C=C\Cc1ccc(OCCCCOc2ccccc2)cc1)Sc1ccc(C(=O)O)cc1` yielded a pKB [5] of 8.3 and an ED50 (Cavia porcellus [6]) of about 3 mg/kg.
`O=C(O)CCC[C@H](O)[C@@H](/C=C\CCCCCCCCCCCCCc1ccccc1)Sc1ccc(C(=O)O)cc1` showed a Ki [1] of 5010 nM.
`O=C(O)CCC(/C=C/Cc1ccc(OCCCCOc2ccccc2)cc1)Sc1ccc(C(=O)O)cc1` (single isomer, unassigned; (+)) was tested, and the Kb [7] was 3.98 nM.
In the case of `O=C(O)CCC[C@H](O)[C@@H](/C=C\c1ccc(OCCCCOc2ccccc2)cc1)Sc1ccc(C(=O)O)cc1`, the pKB [5] is reported as 6.5.
Work on `O=C(O)CCC[C@H](O)[C@@H](/C=C/CCCc1ccccc1)Sc1ccc(C(=O)O)cc1` yielded a Ki [1] of over 100000 nM.
In the case of `O=C(O)CCC[C@H](O)[C@@H](/C=C\Cc1cccc(OCCCOc2ccccc2)c1)Sc1ccc(C(=O)O)cc1`, the pKB [5] is reported as under 5.
`CCCCC/C=C\C\C=C/C=C/C=C/[C@@H](Sc1ccc(C(=O)O)cc1)[C@@H](O)CCCC(=O)O` was tested, and the Ki [2] was 100 nM.
Work on `O=C(O)CCCCC(/C=C\Cc1ccc(OCCCCOc2ccccc2)cc1)Sc1ccc(C(=O)O)cc1` (stereo unspecified) yielded a pKB [8] of 6.8 and a pKB [9] of 8.3.
Work on `CCCCC/C=C\C\C=C/C=C/C=C/[C@@H](SC[C@H](N)C(=O)NCC(=O)O)[C@@H](O)CCCC(=O)O` [LEUKOTRIENE D4] yielded a pD2 (Cavia porcellus [3]) of 8.4.
For `O=C(O)CCC[C@H](O)[C@@H](/C=C/CCc1ccccc1)Sc1ccc(C(=O)O)cc1`, the Ki [1] was over 100000 nM.
With `O=C(O)CCC(/C=C/Cc1ccc(OCCCCOc2ccccc2)cc1)Sc1ccc(C(=O)O)cc1` (single isomer, unassigned; (-)) the Kb [7] was 100 nM.
Work on `O=C(O)CCC[C@H](O)[C@@H](/C=C\Cc1ccccc1OCCCOc1ccccc1)Sc1ccc(C(=O)O)cc1` yielded a pKB [5] of under 5.
For `O=C(O)CCC[C@H](O)[C@@H](/C=C\CCCCCCCCOc1ccccc1)Sc1ccc(C(=O)O)cc1`, the Ki [1] was 631 nM.
In the case of `O=C(O)CCC(/C=C\Cc1ccc(OCCCCOc2ccccc2)cc1)Sc1ccc(C(=O)O)cc1` (stereo unspecified), the pKB [8] is reported as 8, the ED50 (Cavia porcellus [10]) is reported as 2 mg/kg and the pKB [9] is reported as 8.4.
Compound `O=C(O)CCC[C@H](O)[C@@H](/C=C\CCCCCCCCCc1ccccc1)Sc1ccc(C(=O)O)cc1` has a Ki [1] of 251 nM.
`O=C(O)CCC[C@H](O)[C@@H](/C=C\CCc1ccccc1)Sc1ccc(C(=O)O)cc1` gave a Ki [1] of over 100000 nM.
With `O=C(O)CCC[C@H](O)[C@@H](/C=C\CCCCCc1ccccc1)Sc1ccc(C(=O)O)cc1` the Ki [1] was 20000 nM.
In the case of `O=C(O)CCC[C@H](O)[C@@H](/C=C\c1cccc(OCCCCOc2ccccc2)c1)Sc1ccc(C(=O)O)cc1`, the pKB [5] is reported as under 5.
Work on `O=C(O)CCC[C@H](O)[C@@H](/C=C\CCCCCCCCCOc1ccccc1)Sc1ccc(C(=O)O)cc1` yielded a Ki [1] of 316 nM.
